# Reference: US11648289B2, “Antibacterial method” (priority 2016, dated 2023)
# No end group written: not given here.
# Key:
# [1] = system: B. cercus LMGT 2735
# Protocol: (§1) Bacterial strains, growth conditions, bacteriocins and antimicrobial assays. All the strains (see below) used in minimal inhibitory concentration (MIC) assays (Varahan et al., 2014, M. Bio. 5:e01726-01714) were grown in BHI medium (Oxoid) at 30° C. without shaking. A collection of E. faecium strains isolated from blood in patients from different European hospitals was received from Department of Medical Microbiology, University Medical Center Utrecht, the Netherlands. […] Synthesized peptides were solubilized to concentrations of 10.0-0.1 mg/ml in 0.1% (vol/vol) trifluoroacetic acid and stored at −20° C. until use. […] Bacteriocin activity was determined by microtiter plate assay as previously described (Holo et al., 1991, J. Bacteriol., 173:3879-3887). The MIC was defined as the minimal bacteriocin concentration that inhibited the growth of the indicator strain by at least 50% (50% of the turbidity of the control culture without bacteriocin) in 200 μl culture. CD Spectroscopy Circular dichroism (CD) spectra were recorded using a Jasco J-810 spectropolarimeter (Jasco International Co) calibrated with D-camphor-10-sulfonate (Icatayama Chemical). All measurements were made using a quartz cuvette (Sterna) with 0.1 cm path length. Samples were scanned five times with a scanning rate of 50 nm/min with a bandwidth of 0.5 nm and response time of 1 s over the wavelength range 190-250 nm. Spectra were recorded at different (30 and 50%) trifluoroethanol (TFE) (Aldridge) concentrations at 25° C. The approximate α-helical content of the protein was estimated from its molar ellipticity at 222 nm (Scholtz et al., 1991, Biopolymers 31:1463-1470). NMR Spectroscopy The experiments were run on a sample containing 1.0 mM EntK1, 50% D3-TFE (99.5% D) (Aldrich), Milli-Q water and 0.2 mM of 4,4-dimethyl-4-silapentane-1-sulfonic acid (DSS) (Larodan). 2D NOESY (Jeener et al., 1979, J. Magn. Reson., 71:4546-4553), 2D TOCSY (Braunschweiler and Ernst, 1983, J. Magn. Reson., 53:521-528), 2D DQCOSY, ^15N-HSQC (Davis et al., 1992, J. Magn. Reson., 98:207-216) and ^13C-HSQC (Hurd, 1991, J. Magn. Reson., 91:648-653) were recorded. The data was acquired on a 600 MHz Bruker Avance II spectrometer with four channels and a 5 mm TCI cryoprobe (Bruker Biospin). NOESY spectra with mixing times between 120 ms and 300 ms were obtained for both samples. TOCSY mixing times of 15-80 ms were used. The experiments were run at 298.15 K. Spectra were processed using the Topspin program (Bruker Biospin). 4,4-dimethyl-4-silapentane-1-sulfonic acid (DSS) was used as a chemical shift standard, and ^15N and ^13C data were referenced using frequency ratios as described in (Wishart et al., 1995, J. Biomol. NMR., 6:135-140). For visualization, assignment and integration of the spectra the computer program CARA was used (Keller, 2004, The Computer Aided Resonance Assignment Tutorial. CANTINA Verlag, Goldau, Switzerland). The spectra were assigned using standard methods. Dihedral angle restraints were obtained from the chemical shift values using the program TALOS-N(Shen and Bax, 2013, J. Biomol. NMR, 56:227-241). Nuclear Overhauser effect (NOE) distance restraints were calculated from the peak volumes in the NOESY spectra with NOESY mixing time of 200 ms. All structure calculations were made using the structure calculation program CYANA 2.1 (Guntert et al., 1997, J. Mol. Biol., 273:283-298; Herrmann et al., 2002, J. Mol. Biol., 319:209-227). The annealing macro in CYANA calculated 100 structures. The 20 structures with the lowest energy were kept and analyzed further. The root-mean-square deviation (RMSD) was calculated and the structures were visualized using MolMol (Koradi et al., 1996, J. Mol. Graph., 14:51-55, 29-32). Generation of bacteriocin resistant mutants of E. faecalis and E. faecium.
# [2] = system: S. aureus LMGT 3260
# Protocol: as §1
# [3] = system: E. faecalis LMGT 3200
# Protocol: as §1
# [4] = system: S. epidermidis LMGT 3026
# Protocol: as §1
# [5] = system: L. lactis LMGT 2084
# Protocol: as §1
# [6] = system: S. aureus LMGT 3289
# Protocol: as §1
# [7] = system: Listeria monocytogenes LMGT 2651
# Protocol: as §1
# [8] = system: Bacillus cereus LMGT 2805
# Protocol: as §1
# [9] = system: E. faecium LMGT 2769
# Protocol: as §1
# [10] = system: E. faecium and E. faecalis; details: 20 μl of 1 mg/ml bacteriocin on soft agar, overnight, 30° C. vs 45° C.
# [11] = system: E. faecium (2); details: E. faecium (2), Table 6B
# Protocol: (§2) All the strains (see below) used in minimal inhibitory concentration (MIC) assays (Ovchinnikov et al., 2017, Front Microbiol., 8, p774, doi:10.3389/fmicb.2017.00774) were grown in BHI medium (Oxoid) at 30° C. without shaking. The tested strains were obtained from the LMG collection. […] NisinZ and micrococcin P1 were purified from source. Synthesized peptides were solubilized to concentrations of 10.0-0.1 mg/ml in 0.1% (vol/vol) trifluoroacetic acid and stored at −20° C. until use. Garvicin KS is made up of 3 peptides:
# (§3) Bacteriocin activity was determined using a microtitre plate assay. The plates were incubated at 30° C. for 8 h and the growth was measured spectrophotometrically at 600 nm (A600) with 15 min intervals using SPECTROstarNano (BMG LABTECH, Germany). The MIC was defined as the bacteriocin concentration that inhibited the growth of the indicator strain by at least 50% in 200 μl culture (i.e., 50% of the turbidity of the control culture without bacteriocin).
# [12] = system: E. faecalis (2); details: E. faecalis (2), Table 6B
# Protocol: as §2, §3
# [13] = system: E. hirae (4); details: E. hirae (4), Table 6B
# Protocol: as §2, §3
# [14] = system: Listeria spp. (3); details: Listeria spp. (3), Table 6B
# Protocol: as §2, §3
Sequence,MIC 50 [1] [µM],MIC 50 [2] [µM],MIC 50 [3] [µM],MIC 50 [4] [µM],MIC 50 [5] [µM],MIC 50 [6] [µM],MIC 50 [7] [µM],MIC 50 [8] [µM],MIC 50 [9] [µM],appearance of resistant mutants at growth temperature [10],MIC [11] [µg/mL],MIC [12] [µg/mL],MIC [13] [µg/mL],MIC [14] [µg/mL]
MKFKFNPTGTIVKKLTQYEIAWFKNKHGYYPWEIPRC [EntK1],>5.5,>5.5,>5.5,>5.5,>5.5,>5.5,>5.5,>5.5,0.045,only appeared at 30 °C but not at 45 °C,<0.02 to 0.4,>25,0.2 to 0.8,>50
"MKTILRFVAGYDIASHKKKTGGYPWERGKA [LsbB, reference compound]",>7,>7,>7,>7,>7,>7,>7,>7,>7,–,–,–,–,–
MLAKIKAMIKKFPNPYTLAAKLTTYEINWYKQQYGRYPWERPVA [EntEJ97],>4.7,2.3,0.295,>4.7,0.295,>4.7,2.3,>4.7,0.145,only appeared at 30 °C but not at 45 °C,0.8 to 1.6,3.1,0.4 to 1.6,12.5 to 25
